These results are taken from patent publication US20250177476A1, “ANG-(1-7) OLIGOPEPTIDE DERIVATIVES FOR USE IN MITIGATING AMYLOID-RELATED IMAGING ABNORMALITIES” (ProNeurogen, Inc., priority 2023, published 2025).

No end group written: not given here.

The test system of data set [1] is Tg-SwDI mouse model of AD and cerebral amyloid angiopathy (CAA). Description: Cerebral microbleeds (ARIA-H) in Tg-SwDI mice given PNA5 with or without anti-Aβ antibody. The conditions noted are these: Tg-SwDI mice aged 12-13 months; PNA5 30 μL, with PBS or anti-Aβ antibody 3 mg/kg; 2 months; tissue analysis (FIGS. 1A and 1B). Type of data set: in vivo. On the procedure: The effect the Ang-(1-7) oligopeptide PNA5 had on cerebral microbleeds (ARIA-H) in a mouse model of AD and cerebral amyloid angiopathy (CAA) was studied.
Tg-SwDI mice aged 12-13 months were administered: (1) the PNA5 vehicle, without PNA5, and PBS, (2) vehicle and an anti-Aβ antibody, (3) PNA5 and PBS, or (4) PNA5 and an anti-Aβ antibody. The anti-AB antibody therapy (IgG) was administered in an amount of 3 mg/kg. The PNA5 was administered in an amount of 30 μL. For groups receiving the PNA5 alone (Group 3), the compounds were administered for […] which point they were administered a […] (NOR) test and Nest building test (FIG. 2) prior to euthanasia and collection of the tissue for analysis of the microbleeds (FIGS. 1A and 1B). For groups receiving the anti-AB antibody and PNA5 (Group 4), the compounds were administered for 2 months at which point they were administered a […] (NOR) test and Nest building test prior (FIG. 2) to euthanasia and collection of the tissue for analysis of the microbleeds (FIGS. 1A and 1B).

The conditions of data set [2]: FDA-approved food additive; cited from earlier work.

Consider “PNA5: Ang-(1-7) derivative Asp Arg Val Tyr Ile His Ser* (glycosylated serine), carboxyl terminal end NH2 (DRVYIHS-NH2; not fully specified (residue 7); also: glycan on Ser7 not given here)”, for which the “cerebral microbleeds (ARIA-H)” value in data set [1] is “decreased”.
Regarding `CC(=O)OC[C@H]1O[C@H](O[C@]2(COC(C)=O)O[C@H](COC(=O)C(C)C)[C@@H](OC(=O)C(C)C)[C@@H]2OC(=O)C(C)C)[C@H](OC(=O)C(C)C)[C@@H](OC(=O)C(C)C)[C@@H]1OC(=O)C(C)C` [SAIB, sucrose acetoisobutyrate], the “safe human daily intake” value in data set [2] is given as “up to 20 mg/kg”.
